Reference: patent US20230102554A1 (GB002, INC., priority 2019, published 2023)
Counter-ions that a name gives are not always drawn.

Experiments:
[1] = molecular target: T1, Human PDGFRβ, cytoplasmic domain (GST-PDGFRβ) (Homo sapiens, UniProt P09619); assay: Human PDGFRβ biochemical inhibition assay (off-chip Mobility Shift Assay)
T1 construct: made in house
Outline: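 GST-tagged cytoplasmic domain (aa 557-1106) from baculovirus was incubated 1 h at room temperature with compound, CSKtide, ATP at Km and Mg²⁺ in HEPES buffer, pH 7.5. Phosphorylated and unphosphorylated peptide were separated by off-chip mobility shift, and the product ratio P/(P+S) gave percent inhibition.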

[2] = molecular target: T2, Human PDGFRα, cytoplasmic domain (GST-PDGFRα) (Homo sapiens, UniProt P16234); assay: Human PDGFRα biochemical inhibition assay (off-chip Mobility Shift Assay)
T2 construct: made in house
T2 sequence (P16234 550-1089 T674I): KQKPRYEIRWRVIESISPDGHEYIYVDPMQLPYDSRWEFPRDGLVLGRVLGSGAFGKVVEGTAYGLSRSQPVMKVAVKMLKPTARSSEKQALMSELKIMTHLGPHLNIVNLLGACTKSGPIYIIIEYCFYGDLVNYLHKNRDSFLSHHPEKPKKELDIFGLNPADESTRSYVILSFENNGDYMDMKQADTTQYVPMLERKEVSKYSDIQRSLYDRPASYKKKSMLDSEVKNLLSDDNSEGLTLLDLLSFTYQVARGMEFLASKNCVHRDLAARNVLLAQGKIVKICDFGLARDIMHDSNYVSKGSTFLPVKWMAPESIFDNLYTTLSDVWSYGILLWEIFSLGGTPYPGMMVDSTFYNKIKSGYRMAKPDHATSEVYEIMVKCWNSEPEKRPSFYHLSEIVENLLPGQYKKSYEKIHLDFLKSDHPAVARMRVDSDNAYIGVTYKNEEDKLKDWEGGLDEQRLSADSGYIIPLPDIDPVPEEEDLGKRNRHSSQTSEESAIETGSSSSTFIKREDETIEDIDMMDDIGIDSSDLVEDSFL

T1 sequence (P09619 with tags, fused parts or gaps): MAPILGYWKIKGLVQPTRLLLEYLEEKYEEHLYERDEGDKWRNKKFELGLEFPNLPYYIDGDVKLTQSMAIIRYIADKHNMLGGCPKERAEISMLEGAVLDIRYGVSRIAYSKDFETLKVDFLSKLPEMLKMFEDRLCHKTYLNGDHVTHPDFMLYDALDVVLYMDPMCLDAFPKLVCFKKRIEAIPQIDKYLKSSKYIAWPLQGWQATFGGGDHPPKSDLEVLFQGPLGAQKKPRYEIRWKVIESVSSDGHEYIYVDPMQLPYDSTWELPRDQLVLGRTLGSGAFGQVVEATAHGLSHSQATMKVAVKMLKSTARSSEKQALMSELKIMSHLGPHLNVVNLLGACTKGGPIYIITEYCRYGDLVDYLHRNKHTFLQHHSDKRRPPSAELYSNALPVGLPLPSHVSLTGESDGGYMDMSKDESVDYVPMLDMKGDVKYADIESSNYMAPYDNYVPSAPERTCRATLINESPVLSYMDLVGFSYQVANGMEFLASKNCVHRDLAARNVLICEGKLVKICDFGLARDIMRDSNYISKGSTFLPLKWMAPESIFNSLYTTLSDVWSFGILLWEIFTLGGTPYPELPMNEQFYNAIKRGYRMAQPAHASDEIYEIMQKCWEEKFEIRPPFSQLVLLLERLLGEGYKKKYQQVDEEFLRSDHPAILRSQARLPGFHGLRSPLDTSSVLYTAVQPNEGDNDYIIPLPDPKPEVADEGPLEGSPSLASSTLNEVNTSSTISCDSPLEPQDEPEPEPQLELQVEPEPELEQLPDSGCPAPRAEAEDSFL

| Structure (SMILES) | IC50 [1] [nM] | IC50 [2] [nM] |
| --- | --- | --- |
| CCn1cc2ncc(N[C@@H](C)c3cccc(NC(=O)c4ccc(CN5CC[C@@H](F)C5)c(Cl)c4)c3)nc2n1 [Compound 464, 3-chloro-N-(3-((S)-1-((2-ethyl-2H-pyrazolo[3,4-b]pyrazin-6-yl)amino)ethyl)phenyl)-4-(((R)-3-fluoropyrrolidin-1-yl)methyl) benzamide] | < 300 | < 300 |
| C[C@H](Nc1cnc2cnn(C)c2n1)c1cccc(NC(=O)c2ccc(C(F)(F)F)nc2)c1 [Compound 115, (S)-N-(3-(1-((1-methyl-1H-pyrazolo[3,4-b]pyrazin-6-yl)amino)ethyl)phenyl)-6-(trifluoromethyl)nicotinamide] | < 300 | < 300 |
| CCn1cc2ncc(N[C@@H](C)c3cccc(NC(=O)Nc4ccc(N(C)C)nc4)c3)nc2n1 [Compound 739, (S)-1-(6-(dimethylamino)pyridin-3-yl)-3-(3-(1-((2-ethyl-2H-pyrazolo[3,4-b]pyrazin-6-yl)amino)ethyl)phenyl)urea] | ≥ 1000 | < 300 |
| Cc1cncc(C(=O)Nc2cccc([C@H](C)Nc3cnc4cnn(C)c4c3)c2)c1 [Compound 89, (S)-5-methyl-N-(3-(1-((1-methyl-1H-pyrazolo[4,3-b]pyridin-6-yl)amino)ethyl)phenyl)nicotinamide] | 300 to 1000 | < 300 |
| C[C@H](Nc1cnc2cnn(C)c2n1)c1cccc(NC(=O)c2cncc(S(C)(=O)=O)c2)c1 [Compound 227, (S)-N-(3-(1-((1-methyl-1H-pyrazolo[3,4-b]pyrazin-6-yl)amino)ethyl)phenyl)-5-(methylsulfonyl)nicotinamide] | < 300 | < 300 |
| CCn1cc2ncc(N[C@@H](C)c3cc(NC(=O)c4cnc(N5CCCC5)c(C)c4)ccc3F)nc2n1 [Compound 336, (S)-N-(3-(1-((2-ethyl-2H-pyrazolo[3,4-b]pyrazin-6-yl)amino)ethyl)-4-fluorophenyl)-5-methyl-6-(pyrrolidin-1-yl) nicotinamide] | < 300 | < 300 |
| C[C@H](Nc1cnc2cn[nH]c2n1)c1cccc(NC(=O)c2cncc(C3CCC3)c2)c1 [Compound 96, (S)-N-(3-(1-((1H-pyrazolo[3,4-b]pyrazin-6-yl)amino)ethyl)phenyl)-5-cyclobutylnicotinamide] | < 300 | < 300 |
| CCn1cc2ncc(N[C@@H](C)c3cc(NC(=O)Cc4ccc(C5CCC5)nc4)ccc3C)nc2n1 [Compound 672, (S)-2-(6-cyclobutylpyridin-3-yl)-N-(3-(1-((2-ethyl-2H-pyrazolo[3,4-b]pyrazin-6-yl)amino)ethyl)-4-methylphenyl) acetamide] | ≥ 1000 | < 300 |
| Cc1c[nH]c2ncc(N[C@@H](C)c3cccc(NC(=O)c4cnn(C(F)F)c4)c3)nc12 [Compound 561, (S)-1-(difluoromethyl)-N-(3-(1-((7-methyl-5H-pyrrolo[2,3-b]pyrazin-2-yl)amino)ethyl)phenyl)-1H-pyrazole-4-carboxamide] | < 300 | < 300 |
| Cc1cncc(C(=O)Nc2cccc([C@H](C)Nc3cncc4[nH]ncc34)c2)c1 [Compound 749, (S)-N-(3-(1-((1H-pyrazolo[3,4-c]pyridin-4-yl)amino)ethyl)phenyl)-5-methylnicotinamide] | ≥ 1000 | ≥ 1000 |
| Cc1n[nH]c2ncc(N[C@@H](C)c3cccc(NC(=O)c4ccc(OC(F)(F)F)nc4)c3)nc12 [Compound 536, (S)-N-(3-(1-((3-methyl-1H-pyrazolo[3,4-b]pyrazin-5-yl)amino)ethyl)phenyl)-6-(trifluoromethoxy)nicotinamide] | < 300 | < 300 |
| CCn1cc2ncc(N[C@@H](C)c3cccc(NC(=O)c4cnc(C)s4)c3)nc2n1 [Compound 294, (S)-N-(3-(1-((2-ethyl-2H-pyrazolo[3,4-b]pyrazin-6-yl)amino)ethyl)phenyl)-2-methylthiazole-5-carboxamide] | 300 to 1000 | 300 to 1000 |
| CCn1cc2ncc(N[C@@H](C)c3cc(NC(=O)c4ccc(CN5CCCC5)c(Cl)c4)ccc3F)nc2n1 [Compound 426, (S)-3-chloro-N-(3-(1-((2-ethyl-2H-pyrazolo[3,4-b]pyrazin-6-yl)amino)ethyl)-4-fluorophenyl)-4-(pyrrolidin-1-ylmethyl) benzamide] | < 300 | < 300 |
| CCn1cc2ncc(N[C@@H](C)c3cccc(NC(=O)c4cnc(CN5CC6(COC6)C5)c(Cl)c4)c3)nc2n1 [Compound 503, (S)-6-((2-oxa-6-azaspiro[3.3]heptan-6-yl)methyl)-5-chloro-N-(3-(1-((2-ethyl-2H-pyrazolo[3,4-b]pyrazin-6-yl)amino)ethyl)phenyl)nicotinamide] | 300 to 1000 | 300 to 1000 |
| Cc1cncc(C(=O)Nc2cccc([C@H](C)Nc3cnc4ccccc4n3)c2)c1 [Compound 4, (5)-5-methyl-N-(3-(1-(quinoxalin-2-ylamino)ethyl)phenyl)nicotinamide trifluoroacetate] | < 300 | < 300 |
| Cc1cncc(C(=O)Nc2cccc(CNc3cnc4ccccc4n3)c2)c1 [Compound 31, 5-methyl-N-(3-((quinoxalin-2-ylamino)methyl)phenyl) nicotinamide] | < 300 | < 300 |
| CC(=O)Oc1cccc(C(=O)Nc2cccc([C@H](C)Nc3cnc4cnn(C)c4n3)c2)c1 [Compound 215, (S)-3-((3-(1-((1-methyl-1H-pyrazolo[3,4-b]pyrazin-6-yl)amino)ethyl)phenyl)carbamoyl) phenyl acetate] | < 300 | < 300 |
| Cc1cncc(C(=O)Nc2cccc([C@H](C)Nc3cnc4[nH]cc(-c5cnn(C)c5)c4n3)c2)c1 [Compound 563, (S)-5-methyl-N-(3-(1-((7-(1-methyl-H-pyrazol-4-yl)-5H-pyrrolo[2,3-b]pyrazin-2-yl)amino)ethyl)phenyl) nicotinamide] | < 300 | < 300 |
| Cc1ncc(C(=O)Nc2cccc([C@H](C)Nc3cnc4[nH]cc(-c5cnn(C)c5)c4n3)c2)s1 [Compound 583, (S)-2-methyl-N-(3-(1-((7-(1-methyl-1H-pyrazol-4-yl)-5H-pyrrolo[2,3-b]pyrazin-2-yl)amino)ethyl)phenyl)thiazole-5-carboxamide] | < 300 | < 300 |
| COc1cccc2ncc(N[C@@H](C)c3cccc(NC(=O)c4cncc(C)c4)c3)cc12 [Compound 27, (S)-N-(3-(1-((5-methoxyquinolin-3-yl)amino)ethyl)phenyl)-5-methylnicotinamide] | < 300 | < 300 |
| CCn1cc2ncc(N[C@@H](C)c3cc(NC(=O)c4ccc(C5CC5)nc4)ccc3F)nc2n1 [Compound 302, (S)-6-cyclopropyl-N-(3-(1-((2-ethyl-2H-pyrazolo[3,4-b]pyrazin-6-yl)amino)ethyl)-4-fluorophenyl)nicotinamide] | < 300 | < 300 |
| Cc1c[nH]c2ncc(N[C@@H](C)c3cccc(NC(=O)c4cncc(Cl)c4)c3)nc12 [Compound 565, (S)-5-chloro-N-(3-(1-((7-methyl-5H-pyrrolo[2,3-b]pyrazin-2-yl)amino)ethyl)phenyl)nicotinamide] | < 300 | < 300 |
| C[C@H](Nc1cnc2cnn(C)c2n1)c1cccc(NC(=O)c2cnc3ncn(C)c3c2)c1 [Compound 77, (S)-1-methyl-N-(3-(1-((1-methyl-1H-pyrazolo[3,4-b]pyrazin-6-yl)amino)ethyl)phenyl)-1H-imidazo[4,5-b] pyridine-6-carboxamide] | 300 to 1000 | < 300 |
